Assay results published in PubChem BioAssay AID977628 (Broad Institute, 2014).
Records with an inconclusive call do not appear. Calls of active or inactive are those of the source.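 Rule for the calls: active = compound lowering the normal-ribosome reporter at least twice as much as the humanized-ribosome reporter, growth loss under a set limit; inconclusive = no clear call, values can overlap the other calls; inactive = the rest.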

Assays:
[1] = test system: E. coli mixed WT/h24 culture total growth, OD600, 24 h; experiment: growth of wild-type and h24-humanized E. coli strains – h24 mutant RFP vs wild-type GFP, cherry-pick, dose response (AID 977628);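 note: wild-type GFP and h24 humanized RFP strains co-cultured 1 to 1 per well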
[2] = test system: E. coli WT GFP strain growth, fluorescence, 24 h; experiment: as above

Row | Compound | AC50 [1] [µM] | AC50 [2]
1 | COc1ccc(CNC(=O)c2nc(S(=O)(=O)Cc3ccccc3)ncc2Cl)cc1 | > 100 | –
2 | COc1ccccc1-c1noc2ncnc(Nc3ccccc3C)c12 | > 100 | –
3 | CN1CCN(CC(=O)c2cc(C(C)(C)C)c(O)c(C(C)(C)C)c2)CC1 | > 100 | –
4 | Cc1ccn2cc(-c3cccc(NC(=O)c4cccs4)c3)nc2c1 | > 100 | –
5 | Cc1ccsc1C(=O)C1CCCN(Cc2cc(F)ccc2-n2cccn2)C1 (stereo not given) | > 100 | –
6 | COc1cc(OC)c(NS(=O)(=O)c2cccc(C(=O)OCC(=O)NCC3CCCO3)c2)cc1Cl (stereo not given) | > 100 | –
7 | CCN(CC)S(=O)(=O)c1ccc(N2CCCC2)c(NC(=O)c2ccccc2OC)c1 | > 100 | –
8 | O=C(CN1CCCCC1)n1c2ccccc2c2ccccc21 | > 100 | –
9 | CC(=O)NCCOc1nc(N2CCCCC2)nc(N2CCCCC2)n1 | > 100 | –
10 | O=C(c1cc(S(=O)(=O)N2CCOCC2)ccc1Cl)N1CCc2ccccc2C1 | > 100 | –
11 | COc1cc(CCN(C(=O)c2cc3ccccc3[nH]2)C(c2ccccn2)c2nc3ccccc3[nH]2)cc(OC)c1 (stereo not given) | > 100 | –
12 | CC1CCCC(NC(=O)COC(=O)[C@@H]2CC(O)CN2S(=O)(=O)c2ccc3c(c2)OCCO3)C1C (stereo not given in full) | > 100 | –
13 | COc1cccc(NC(=O)COC(=O)Cc2ccc(Br)cc2)c1 | > 100 | –
14 | COC(=O)c1cc(S(=O)(=O)NCc2ccc3c(c2)OCO3)cn1C | > 100 | –
15 | CCN(CC)c1nc(Oc2ccc(C(=O)OC)cc2)nc(N2CCOCC2)n1 | > 100 | –
16 | COC(=O)c1sc(C(C)(C)C)cc1CS(=O)(=O)c1ccc(Cl)cc1 | > 100 | –
17 | CC(C)n1nnnc1C1c2ccccc2C(=O)N1CCOc1ccccc1 (stereo not given) | > 100 | –
18 | Cc1ccc(NC(=O)c2ccc([N+](=O)[O-])s2)cc1S(=O)(=O)N1CCOCC1 | > 100 | –
19 | COC(=O)c1cc2c(c3c4cc(F)ccc4n(S(=O)(=O)c4cccc(C)c4)c13)C(=O)N(Cc1ccco1)C2 | > 100 | –
20 | COc1cccc(OC)c1CNC(=O)CCSCc1ccccc1F | > 100 | –
21 | CCCn1c(C(C)Nc2nc(-c3ccc(C)cc3)cs2)nc2ccccc21 (stereo not given) | > 100 | –
22 | Cc1ccc(S(=O)(=O)NCc2c(-c3ccccc3)noc2C)cc1 | > 100 | –
23 | O=C(C[n+]1ccn(-c2ccccc2)c1)c1ccc([N+](=O)[O-])cc1 | > 100 | –
24 | Fc1ccc(Br)cc1SCCc1ccncc1 | > 100 | –
25 | COc1ccc(-c2csc(NC(=O)c3ccoc3C)n2)cc1 | > 100 | –

Row | Compound | AC50 [1] [µM] | AC50 [2]
26 | COc1ccc2c(c1)-c1nc(N)sc1CC2 | > 100 | –
27 | Cn1cc(CN(CCO)Cc2cccs2)c(-c2cccc(Cl)c2)n1 | > 100 | –
28 | O=C(c1sc2ccccc2c1Cl)N1CCC2(CC1)OCCO2 | > 100 | –
29 | COc1ccc(OCCC(=O)OCC(=O)NCCC2=CCCCC2)cc1 | > 100 | –
30 | Cc1cccc(NC(=O)c2c(C)nn(-c3ccccc3)c2Cl)c1 | > 100 | –
31 | Cc1ccoc1C(=O)Nc1ccc2ccccc2c1 | – | > 100 µM (inactive)
32 | CCOc1ccc2nc(NC(=O)CSc3nc(SC)ns3)sc2c1 | – | > 100 µM (inactive)
33 | COCCNc1cc(-c2ccccc2)nc2cc(-c3cccc(F)c3)nn12 | – | > 100 µM (inactive)
34 | Cc1sc(NC(=O)CN2CCOCC2)nc1-c1ccc2c(c1)CCN2S(=O)(=O)c1ccccc1 | – | > 100 µM (inactive)
35 | CC1(C(=O)NS(=O)(=O)c2cccs2)CCN1C(=O)C1(c2ccc(Cl)cc2)CCC1 (stereo not given) | – | > 100 µM (inactive)
36 | COc1ccc(NS(=O)(=O)c2ccc(Cl)c(NC(=O)c3ccccc3F)c2)cc1 | – | > 100 µM (inactive)
37 | COc1ccc(OC)c(-c2nn(-c3ccccc3)cc2C(=O)N2CCc3ccccc3C2)c1 | – | > 100 µM (inactive)
38 | O=C(c1ccccc1)C1CN(Cc2ccccc2)CCC1(O)c1ccccc1 (stereo not given) | – | > 100 µM (inactive)
39 | CC(CCC(=O)O)C1CC[C@@]2(C)C3C(=O)CC4C(C)(C)C(O)CC[C@]4(C)C3C(=O)C[C@]12C (stereo not given in full) | – | > 100 µM (inactive)
40 | CCC(=O)c1ccc(OCC(=O)Nc2nc(C)cs2)cc1 | – | > 100 µM (inactive)
41 | O=C1NC(=O)C2(Cc3cc([N+](=O)[O-])ccc3N3CCN(C(=O)c4ccccc4)CC32)C(=O)N1 (stereo not given) | – | > 100 µM (inactive)
42 | COc1ccc(C)cc1-n1c(=O)c2ccccc2c2ccccc2c1=O | – | > 100 µM (inactive)
43 | O=C(CCC(=O)c1cccs1)OCC(=O)c1ccc(Cl)s1 | – | > 100 µM (inactive)
44 | COc1ccc(OC)c(-c2nnc3n2N=C(c2ccc(OC)c(OC)c2)CS3)c1 | – | > 100 µM (inactive)
45 | COc1cccc(C2c3cc4c(cc3OC(N3CCCC3)C2C)OCO4)c1O (stereo not given) | – | > 100 µM (inactive)
46 | Cc1ccc(N2C(=O)NC(NS(=O)(=O)c3ccccc3)(C(F)(F)F)C2=O)cc1C (stereo not given) | – | > 100 µM (inactive)
47 | COc1ccc(NC(=O)CN(C)C(=O)c2cc(C3CC3)nn2-c2ccccc2)cc1 | – | > 100 µM (inactive)
48 | O=C(c1cnc(Cc2c[nH]c3ccccc23)c(I)c1)N1CCCCC1 | – | > 100 µM (inactive)
49 | COc1ccc(-c2cc(C(=O)N3CCc4ccccc4C3)no2)cc1 | – | > 100 µM (inactive)
50 | O=C(c1cc(COc2ccc(F)cc2F)on1)N1CCCC(c2ccccc2)C1 (stereo not given) | – | > 100 µM (inactive)

Row | Compound | AC50 [1] [µM] | AC50 [2]
51 | Cc1cc(C)c(S(=O)(=O)NCCOc2ccccc2)c(C)c1-n1cnnn1 | – | > 100 µM (inactive)
52 | Cc1cccc(OCCC(=O)N(C)CC(=O)Nc2cccc3ccccc23)c1 | – | > 100 µM (inactive)
53 | CCn1nnc(NC(=O)c2ccc([N+](=O)[O-])o2)n1 | – | > 100 µM (inactive)
54 | C=CCn1c(C)cc(C(=O)COC(=O)CNC(=O)c2ccccc2)c1C | – | > 100 µM (inactive)
55 | O=C(O)CCN(Cc1ccccc1)S(=O)(=O)c1ccccc1Cl | – | > 100 µM (inactive)
56 | Cc1ccccc1S(=O)(=O)c1cc2ccccc2nc1N | – | > 100 µM (inactive)
57 | COc1cccc(OC)c1OCCCOc1cccc2cccnc12 | – | > 100 µM (inactive)
58 | CCCCCCCNC(=O)c1ccc(N2CCC3(CC2)OCCO3)c([N+](=O)[O-])c1 | – | > 100 µM (inactive)
59 | C=CCN(c1ccccc1)S(=O)(=O)c1cccc2cccnc12 | – | > 100 µM (inactive)
60 | O=C(c1ccc(Cl)cc1)N1CCN(c2cccc3[nH]ccc23)CC1 | – | > 100 µM (inactive)
61 | COCCCn1c(C)cc(C(=O)COC(=O)CCc2nc3ccccc3c(=O)[nH]2)c1C | – | > 100 µM (inactive)
62 | COc1ccc(C(=O)c2c(C)oc3ccc(O)cc23)cc1 | – | > 100 µM (inactive)
63 | O=c1[nH]c(C2CCN(S(=O)(=O)c3ccc4c(c3)OCCO4)CC2)nc2c1nnn2Cc1ccccc1F | – | > 100 µM (inactive)
64 | O=C(O)CC1(CC(=O)NCc2ccc(-c3cccs3)cc2)CCCCC1 | – | > 100 µM (inactive)
65 | CCOC(=O)c1cccc(OS(=O)(=O)Cc2ccccc2)c1 | – | > 100 µM (inactive)
66 | CCc1ccc(OCC(=O)NCc2ccco2)c(Br)c1 | – | > 100 µM (inactive)
67 | COc1cccc(NC(=O)c2ccc(-c3ccc([N+](=O)[O-])cc3)o2)c1 | – | > 100 µM (inactive)
68 | COc1ccccc1NC(=O)CSc1nccn1Cc1ccc(F)cc1 | – | > 100 µM (inactive)
69 | Cc1cc2nc(SCC(=O)O)nc(C)c2cc1C | – | > 100 µM (inactive)
70 | O=C(CN1CCCCC1)Nc1ccccc1-c1ccccc1 | – | > 100 µM (inactive)
71 | O=C(Cc1coc2ccc3ccccc3c12)NCc1ccccc1 | – | > 100 µM (inactive)
72 | O=C1CCCN1CCCNc1ncnc2c1[nH]c1ccc(Cl)cc12 | – | > 100 µM (inactive)
73 | CCOC(=O)c1cc(C)nc(N2CCCCC2)c1C#N | – | > 100 µM (inactive)
74 | Cc1ccccc1-n1nnnc1SCCCC(=O)c1ccc(F)cc1 | – | > 100 µM (inactive)
75 | N#Cc1ccc(OCC(=O)N2CCN(S(=O)(=O)c3ccc(Cl)s3)CC2)cc1 | – | > 100 µM (inactive)

Row | Compound | AC50 [1] [µM] | AC50 [2]
76 | Cc1ccccc1OCC(O)Cn1c(NCc2ccco2)nc2c1c(=O)n(C)c(=O)n2C (stereo not given) | – | > 100 µM (inactive)
77 | CCOC(=O)c1csc(NC(=O)CC2CCCC2)n1 | – | > 100 µM (inactive)
78 | CC(C)=C(c1ccc(Cl)cc1)c1c(N)ncnc1N | – | > 100 µM (inactive)
79 | O=C(c1cc(COc2c(F)cccc2F)on1)N1C[C@H]2CC[C@H]1C2 | – | > 100 µM (inactive)
80 | CCOc1ccccc1N1CCN(Cc2cn[nH]c2-c2ccc(F)cc2)CC1 | – | > 100 µM (inactive)
81 | CCOC(=O)c1cnc2c(ccc3ccccc32)c1NCCCN(C)C | – | > 100 µM (inactive)
82 | CCC(C(=O)NCCc1ccc(C)cc1)n1nc(C)c2c(C)n(-c3ccccc3)nc2c1=O (stereo not given) | – | > 100 µM (inactive)
83 | Cc1nc(Sc2ccccc2)c(C#N)c(C)c1[N+](=O)[O-] | – | > 100 µM (inactive)
84 | O=C(CN1CCC(n2nnc3cc(F)ccc32)CC1)N1CCc2ccccc2C1 | – | > 100 µM (inactive)
85 | COCc1nnc(NC(=O)c2ccc(S(=O)(=O)N3CCCC3)cc2)o1 | – | > 100 µM (inactive)
86 | COc1cc(O)c2c(c1)/C=C/C[C@H](O)[C@H](O)C(=O)CCC[C@H](C)OC2=O | – | > 100 µM (inactive)
87 | O=C(O)CSc1nnc(-c2ccc(Cl)cc2Cl)n1-c1ccc(Br)cc1 | – | > 100 µM (inactive)
88 | CCC(C)C(=O)Nc1nc2ccc(OC)cc2s1 (stereo not given) | – | > 100 µM (inactive)
89 | CC(=O)OC1N=C(c2ccccc2Cl)c2cc(Br)ccc2NC1=O (stereo not given) | – | > 100 µM (inactive)
90 | COc1cc(OC)cc(C(=O)N[C@H](C(=O)OCC(=O)Nc2ccc(F)c(F)c2F)C(C)C)c1 | – | > 100 µM (inactive)
91 | Cc1ccc(Cl)cc1N1CCN(C(=O)c2ccc3nc[nH]c3c2)CC1 | – | > 100 µM (inactive)
92 | Nc1nn(-c2ccccc2)c2ccc([N+](=O)[O-])cc12 | – | > 100 µM (inactive)
93 | COc1ccc(N2C(=O)C3C(C2=O)C3(c2ccccc2)c2ccccc2)cc1 (stereo not given) | – | > 100 µM (inactive)
94 | CC(=O)c1cccc(NC(=O)COC(=O)CCC(=O)c2ccc(F)cc2)c1 | – | > 100 µM (inactive)
95 | CC(C)(C)c1ccc(N2C(=O)CSC2c2cccnc2)cc1 (stereo not given) | – | > 100 µM (inactive)
96 | O=C(Cc1cccc(NC(=O)C2CCN(C(=O)CCc3ccccc3)CC2)c1)Nc1cccc(C(=O)N2CCCC2)c1 | – | > 100 µM (inactive)
97 | O=C(NCc1cccnc1)c1ccc(COc2ccc3c(c2)CCC3)o1 | – | > 100 µM (inactive)
98 | O=C(Nc1ccc(S(=O)(=O)N2CCCC2)cc1)c1ccc(OCC2CCCO2)cc1 (stereo not given) | – | > 100 µM (inactive)
99 | COC(=O)c1cc(C(=O)c2c(C)cc3ccccn23)cc([N+](=O)[O-])c1 | – | > 100 µM (inactive)
100 | CC(=O)Oc1ccc(N(C(C)=O)S(=O)(=O)c2ccc(C)cc2)c2ccccc12 | – | > 100 µM (inactive)
